Tests used:
human CD73 = biological target: T1, human CD73 (Homo sapiens, UniProt P21589); assay: Inhibitor activity against CD73 in cell based assay (CD73 expressing CHO-K1 cells); conditions: CHO-K1 cells expressing human CD73, 150 μM AMP, 4 hours of incubation; read-out: CHO-K1 CELL VARIANT: CD73 IC50
T1 construct: expressed in transfected cells
T1 sequence (P21589 27-549): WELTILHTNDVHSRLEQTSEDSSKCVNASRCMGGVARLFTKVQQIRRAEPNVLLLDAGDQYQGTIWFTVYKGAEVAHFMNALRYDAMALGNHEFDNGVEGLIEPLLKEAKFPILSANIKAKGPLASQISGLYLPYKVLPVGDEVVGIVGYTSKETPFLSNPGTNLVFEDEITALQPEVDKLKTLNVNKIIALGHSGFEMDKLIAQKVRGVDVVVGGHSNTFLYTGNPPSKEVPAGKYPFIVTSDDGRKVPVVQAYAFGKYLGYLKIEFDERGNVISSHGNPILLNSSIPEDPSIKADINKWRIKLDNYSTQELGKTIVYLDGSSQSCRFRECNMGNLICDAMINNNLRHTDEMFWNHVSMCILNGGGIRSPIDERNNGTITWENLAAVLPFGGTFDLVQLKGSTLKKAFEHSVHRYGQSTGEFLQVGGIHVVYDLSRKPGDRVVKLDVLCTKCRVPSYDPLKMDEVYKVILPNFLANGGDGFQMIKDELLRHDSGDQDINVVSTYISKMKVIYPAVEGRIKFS
Procedure, shortened: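 Stably transfected CHO-K1 cells expressing human CD73 (1×10^4/well) incubated 4 h with compound (8-point 1:3 titration, top 10 μM final, 0.2% DMSO) and 150 μM AMP. Residual AMP in supernatant measured by CellTiter-Glo luminescence with 1 μM ATP after 30 min at room temperature; IC50 by nonlinear regression of percent inhibition vs high/low controls.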

[1] = biological target: T2, Human CD73 (amino acid residues 27-549) (Homo sapiens, UniProt P21589); assay: CD73 enzymatic assay (luciferase-based indirect assay, CellTiter-Glo); format: biochemical; conditions: 0.4 nM CD73, 150 μM AMP, 1 hour at room temperature
T2 construct: Human CD73 (amino acid residues 27-549); His tag (N); made in house; host or cells: E. coli
T2 sequence (P21589 27-549): T1 sequence (P21589 27-549)
Procedure, shortened: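 His-tagged human CD73 (27-549) from E. coli, 0.4 nM, with 150 μM AMP in 50 mM HEPES pH 7.4, 0.01% Tween 20; 1 h at room temperature. AMP remaining read by CellTiter-Glo 2.0 luminescence with 1 μM final ATP after 30 min. IC50 from nonlinear regression of % inhibition.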

SMILES: CS(=O)(=O)N[C@H]1CC[C@H](NC(=O)O[C@@H]2CCN(c3cn[nH]c(=O)c3C#N)C2)CC1 [P-0144, (R)-1-(5-cyano-6-oxo-1,6-dihydropyridazin-4-yl)pyrrolidin-3-yl ((1r,4R)-4-(methylsulfonamido)cyclohexyl)carbamate]
- IC50 (human CD73): 0.001 to 10 µM
- IC50 [1]: 0.001 to 10 µM

SMILES: N#Cc1c(N2CC[C@@H](OC(=O)NC3CCC(F)(F)CC3)C2)cn[nH]c1=O [P-0145, (R)-1-(5-cyano-6-oxo-1,6-dihydropyridazin-4-yl)pyrrolidin-3-yl (4,4-difluorocyclohexyl)carbamate]
- IC50 (human CD73): 0.001 to 10 µM
- IC50 [1]: 0.001 to 10 µM

SMILES: O=C(NC1CCN(C(=O)NC2CC2)CC1)O[C@@H]1CCN(c2cn[nH]c(=O)c2Cl)C1 [P-0146, (R)-1-(5-chloro-6-oxo-1,6-dihydropyridazin-4-yl)pyrrolidin-3-yl (1-(cyclopropylcarbamoyl)piperidin-4-yl)carbamate]
- IC50 (human CD73): 0.001 to 10 µM
- IC50 [1]: 0.001 to 10 µM

SMILES: O=C(NC1CCN(C(=O)NC2CCCCC2)CC1)O[C@@H]1CCN(c2cn[nH]c(=O)c2Cl)C1 [P-0147, (R)-1-(5-chloro-6-oxo-1,6-dihydropyridazin-4-yl)pyrrolidin-3-yl (1-(cyclohexylcarbamoyl)piperidin-4-yl)carbamate]
- IC50 (human CD73): 0.001 to 10 µM
- IC50 [1]: 0.001 to 10 µM

SMILES: O=C(NC1CCN(C(=O)Nc2ccc(F)cc2)CC1)O[C@@H]1CCN(c2cn[nH]c(=O)c2Cl)C1 [P-0148, (R)-1-(5-chloro-6-oxo-1,6-dihydropyridazin-4-yl)pyrrolidin-3-yl (1-((4-fluorophenyl)carbamoyl)piperidin-4-yl)carbamate]
- IC50 (human CD73): 0.001 to 10 µM
- IC50 [1]: 0.001 to 10 µM

SMILES: NC(=O)N1CCC(NC(=O)O[C@@H]2CCN(c3cn[nH]c(=O)c3Cl)C2)CC1 [P-0149, (R)-1-(5-chloro-6-oxo-1,6-dihydropyridazin-4-yl)pyrrolidin-3-yl (1-carbamoylpiperidin-4-yl)carbamate]
- IC50 (human CD73): 0.001 to 10 µM
- IC50 [1]: 0.001 to 10 µM

SMILES: CS(=O)(=O)N1CCC(NC(=O)O[C@@H]2CCN(c3cn[nH]c(=O)c3Cl)C2)CC1 [P-0150, (R)-1-(5-chloro-6-oxo-1,6-dihydropyridazin-4-yl)pyrrolidin-3-yl (1-(methylsulfonyl)piperidin-4-yl)carbamate]
- IC50 (human CD73): 0.001 to 10 µM
- IC50 [1]: 0.001 to 10 µM

SMILES: N#Cc1c(N2CC[C@@H](OC(=O)NC3CCN(C4CCCC4)CC3)C2)cn[nH]c1=O [P-0151, (R)-1-(5-cyano-6-oxo-1,6-dihydropyridazin-4-yl)pyrrolidin-3-yl (1-cyclopentylpiperidin-4-yl)carbamate]
- IC50 (human CD73): 0.001 to 10 µM
- IC50 [1]: 0.001 to 10 µM

SMILES: O=C(N[C@H]1CC[C@H](NS(=O)(=O)C2CC2)CC1)O[C@@H]1CCN(c2cn[nH]c(=O)c2Cl)C1 [P-0152, (R)-1-(5-chloro-6-oxo-1,6-dihydropyridazin-4-yl)pyrrolidin-3-yl ((1r,4R)-4-(cyclopropanesulfonamido)cyclohexyl)carbamate]
- IC50 (human CD73): 0.001 to 10 µM
- IC50 [1]: 0.001 to 10 µM

SMILES: O=C(N[C@H]1CC[C@H](NS(=O)(=O)NC2CCCC2)CC1)O[C@@H]1CCN(c2cn[nH]c(=O)c2Cl)C1 [P-0153, (R)-1-(5-chloro-6-oxo-1,6-dihydropyridazin-4-yl)pyrrolidin-3-yl ((1r,4R)-4-((N-cyclopentylsulfamoyl)amino)cyclohexyl)carbamate]
- IC50 (human CD73): 0.001 to 10 µM
- IC50 [1]: 0.001 to 10 µM

SMILES: Cc1c(N2CC[C@@H](OC(=O)NC3CCC(F)(F)C3)C2)cn[nH]c1=O (stereo partly drawn) [P-0154, (R)-1-(5-methyl-6-oxo-1,6-dihydropyridazin-4-yl)pyrrolidin-3-yl (3,3-difluorocyclopentyl)carbamate]
- IC50 (human CD73): 0.001 to 10 µM
- IC50 [1]: 0.001 to 10 µM

SMILES: Cn1ncc(N2CC[C@@H](OC(=O)NC3CCCC3)C2)c(Cl)c1=O [P-0155, (R)-1-(5-chloro-1-methyl-6-oxo-1,6-dihydropyridazin-4-yl)pyrrolidin-3-yl cyclopentylcarbamate]
- IC50 (human CD73): 0.001 to 10 µM
- IC50 [1]: 0.001 to 10 µM

SMILES: NC(=O)N[C@H]1CC[C@H](NC(=O)O[C@@H]2CCN(c3cn[nH]c(=O)c3Cl)C2)CC1 [P-0156, (R)-1-(5-chloro-6-oxo-1,6-dihydropyridazin-4-yl)pyrrolidin-3-yl ((1r,4R)-4-ureidocyclohexyl)carbamate]
- IC50 (human CD73): 0.001 to 10 µM
- IC50 [1]: 0.001 to 10 µM

SMILES: O=CN[C@H]1CC[C@H](NC(=O)O[C@@H]2CCN(c3cn[nH]c(=O)c3Cl)C2)CC1 [P-0157, (R)-1-(5-chloro-6-oxo-1,6-dihydropyridazin-4-yl)pyrrolidin-3-yl ((1r,4R)-4-formamidocyclohexyl) carbamate]
- IC50 (human CD73): 0.001 to 10 µM
- IC50 [1]: 0.001 to 10 µM

SMILES: O=C(N[C@H]1CC[C@H](NS(=O)(=O)c2ccccc2)CC1)O[C@@H]1CCN(c2cn[nH]c(=O)c2Cl)C1 [P-0158, (R)-1-(5-chloro-6-oxo-1,6-dihydropyridazin-4-yl)pyrrolidin-3-yl ((1r,4R)-4-(phenylsulfonamido)cyclohexyl)carbamate]
- IC50 (human CD73): 0.001 to 10 µM
- IC50 [1]: 0.001 to 10 µM

SMILES: NCC(=O)N1CCC(NC(=O)O[C@@H]2CCN(c3cn[nH]c(=O)c3Cl)C2)CC1 [P-0159, (R)-1-(5-chloro-6-oxo-1,6-dihydropyridazin-4-yl)pyrrolidin-3-yl (1-glycylpiperidin-4-yl)carbamate]
- IC50 (human CD73): 0.001 to 10 µM
- IC50 [1]: 0.001 to 10 µM

SMILES: CC(C)(C)OC(=O)NCC(=O)N1CCC(NC(=O)O[C@@H]2CCN(c3cn[nH]c(=O)c3Cl)C2)CC1 [P-0160, (R)-1-(5-chloro-6-oxo-1,6-dihydropyridazin-4-yl)pyrrolidin-3-yl (1-((tert-butoxycarbonyl)glycyl)piperidin-4-yl)carbamate]
- IC50 (human CD73): 0.001 to 10 µM
- IC50 [1]: 0.001 to 10 µM

SMILES: CC(=O)NCC(=O)N1CCC(NC(=O)O[C@@H]2CCN(c3cn[nH]c(=O)c3Cl)C2)CC1 [P-0161, (R)-1-(5-chloro-6-oxo-1,6-dihydropyridazin-4-yl)pyrrolidin-3-yl (1-(acetylglycyl)piperidin-4-yl)carbamate]
- IC50 (human CD73): 0.001 to 10 µM
- IC50 [1]: 0.001 to 10 µM

SMILES: CCOC(=O)NCC(=O)N1CCC(NC(=O)O[C@@H]2CCN(c3cn[nH]c(=O)c3Cl)C2)CC1 [P-0162, ethyl (R)-(2-(4-((((1-(5-chloro-6-oxo-1,6-dihydropyridazin-4-yl)pyrrolidin-3-yl)oxy)carbonyl)amino)piperidin-1-yl)-2-oxoethyl) carbamate]
- IC50 (human CD73): 0.001 to 10 µM
- IC50 [1]: 0.001 to 10 µM

SMILES: CS(=O)(=O)NCC(=O)N1CCC(NC(=O)O[C@@H]2CCN(c3cn[nH]c(=O)c3Cl)C2)CC1 [P-0163, (R)-1-(5-chloro-6-oxo-1,6-dihydropyridazin-4-yl)pyrrolidin-3-yl (1-((methylsulfonyl)glycyl)piperidin-4-yl)carbamate]
- IC50 (human CD73): 0.001 to 10 µM
- IC50 [1]: 0.001 to 10 µM

SMILES: O=C(CO)N[C@H]1CC[C@H](NC(=O)O[C@@H]2CCN(c3cn[nH]c(=O)c3Cl)C2)CC1 [P-0164, (R)-1-(5-chloro-6-oxo-1,6-dihydropyridazin-4-yl)pyrrolidin-3-yl ((1r,4R)-4-(2-hydroxyacetamido)cyclohexyl) carbamate]
- IC50 (human CD73): 0.001 to 10 µM
- IC50 [1]: 0.001 to 10 µM

SMILES: CC(=O)N[C@H]1CC[C@H](NC(=O)O[C@@H]2CCN(c3cn[nH]c(=O)c3Cl)C2)CC1 [P-0165, (R)-1-(5-chloro-6-oxo-1,6-dihydropyridazin-4-yl)pyrrolidin-3-yl ((1r,4R)-4-acetamidocyclohexyl)carbamate]
- IC50 (human CD73): 0.001 to 10 µM
- IC50 [1]: 0.001 to 10 µM

SMILES: N#Cc1c(N2CC[C@@H](OC(=O)NC3CCNCC3)C2)cn[nH]c1=O [P-0166, (R)-1-(5-cyano-6-oxo-1,6-dihydropyridazin-4-yl)pyrrolidin-3-yl piperidin-4-ylcarbamate]
- IC50 (human CD73): 0.001 to 10 µM
- IC50 [1]: 0.001 to 10 µM

Source: patent US12509444B2, “Compounds and methods for CD73 modulation and indications therefor” (Plexxikon Inc., priority 2019, dated 2025)
